Tests used:
Format in all cases: cell-based, Human
[1] = tested on: NSCs; assay: Cytotoxicity by MTT assay against NSCs; conditions: concentrations used in the cytokine studies
Procedure: (§1) Human induced pluripotent stem cell-derived neural stem cells (HIP™ hNSC BC1, GlobalStem®, Rockville, Md.) used for the in vitro portion of this study. NSCs were maintained on matrigel-coated tissue culture dishes in neural stem cell media composed of neural basal medium, 2% B-27 supplement, 1% non-essential amino acids, 2 mM L-alanine/L-glutamine, 1% penicillin/streptomycin, and 20 ng/mL bFGF. The media was changed every other day. When NSCs reached confluence (approximately every 4 to 5 days), cells were enzymatically passaged using Accutase and removed from the dish using a cell scrapper. Cells were split at a 1:4 ratio. To prepare NSCs for MTT and ROS Reduction assays, NSCs were plated in matrigel-coated 96-well dishes at a ratio of 40,000 cells per well in neural stem cell media.
The cytotoxic behavior of all the NPs was evaluated by using the MTT assay against NSCs. Cells (40,000 cells/well) were seeded on a 96-well plate in 100 μL of NSC basal complete medium and incubated for 24 h. The cells were treated with NPs at varying concentrations (with respect to prednisone and CoQ10) and incubated at 37° C. […] The medium was removed, the cells were lysed with 100 μL of DMSO, and the absorbance of the purple formazan was recorded at 550 nm using a Bio-Tek Synergy HT microplate reader. Each well was performed in triplicate and a background reading was recorded at 800 nm.

[2] = tested on: NSCs; assay: Antioxidative properties by Seahorse analyzer (OCR) in H2O2 treated NSCs; conditions: H2O2 10 μM, 1 μM with respect to CoQ10
From the text: Oxidative stress induced by the production of ROS including free radicals and peroxides is one of the major mechanisms, which leads to neuronal destruction and is closely related to apoptosis and necrosis in these cells during TBI. Mitochondria are well known to be a major source of ROS production. CoQ10 is endogenously synthesized in mammalian mitochondria, acts as both antioxidant and pro-oxidant, and is involved in shuttling electrons from complexes I or II and a number of other electron donors, including electron transfer factor, which moves electrons from fatty acid beta oxidation. CoQ10 is found in all cell and organelle membranes, where it can participate in redox shuttling. However, defects in CoQ10 biosynthesis can be found during TBI. […]
T-CoQ10-NPs, NT-CoQ10-NPs, and free CoQ10 were tested for their ability to reduce oxidative stress in NSCs. […] The cells were monitored for changes in oxygen consumption rate (OCR) with respect to time. A basal reading was acquired for 45 min and then H2O2(10 μM) was injected. The OCR was monitored for 90 min and T-CoQ10-NPs (1 μM with respect to CoQ10), NT-CoQ10-NPs (1 μM with respect to CoQ10), and free CoQ10 (1 μM) were injected. The OCR levels were then further measured for 4.5 h. As a control, cells were also monitored with no treatment or only treatment of H2O2(10 μM).

[3] = tested on: LPS stimulated NSCs; assay: Anti-inflammatory properties in LPS stimulated NSCs (cytokine ELISA); conditions: LPS 100 ng/mL 36 h, 1 μM
From the text: Immunosuppressant corticoid based rugs such as prednisone can exert biphasic effects on neuronal mitochondrial dynamics. A low level of prednisone and chronic high levels can attenuate various aspects of mitochondrial function. […] Inflammatory cytokines like TNF-α and IL-6 are closely linked to TBI and these cytokines have a negative effect on damaged tissue. Therefore limiting inflammatory cytokine activity is of major benefit in reducing TBI tissue damage. We used lipopolysaccharide (LPS) to stimulate TNF-α and IL-6 production in NSCs to understand the anti-inflammatory effects of prednisone-NPs and CoQ10-NPs in an in vitro model (FIG. 6C). […] The T and NT NPs containing prednisone reduced the levels of IL-6 in the LPS stimulated NSCs. The addition of T or NT-CoQ10-NPs to prednisone NPs increased the efficiency of IL-6 reduction. […] IL-10 is primarily an anti-inflammatory cytokine with potent inhibitory effects on several pro-inflammatory mediators. […] IL-12 has immune-inflammatory responses in the brain; however the consequences of local production of IL-12 on spontaneous immune responses are unknown. […] The exact mechanism why only mitochondria targeted therapy produces IL-12 from the NSCs warrants further investigation.
as §1, with “To prepare NSCs for MTT and ROS Reduction assays, NSCs were plated in matrigel-coated 96-well dishes at a ratio of 40,000 cells per well in neural stem cell media.” left out
NSCs were plated on each well of a 12-well plate at a density of […] per well and allowed to grow overnight (NSC basal media in 200 μL). […] The absorbance was recorded at 450 nm using a BioTek Synergy HT well plate reader.

| Compound | cytotoxic effects (MTT) [1] | effect on H2O2 mediated oxidative stress (OCR) [2] | IL-10 [3] | TNF-α secretion induced by LPS [3] |
| --- | --- | --- | --- | --- |
| COC1=C(OC)C(=O)C(C/C=C(\C)CC/C=C(\C)CC/C=C(\C)CC/C=C(\C)CC/C=C(\C)CC/C=C(\C)CC/C=C(\C)CC/C=C(\C)CC/C=C(\C)CCC=C(C)C)=C(C)C1=O [CoQ10, coenzyme Q10] | did not show any cytotoxic effects | less efficiency in oxidative stress reduction | elevated |  |
| C[C@]12C=CC(=O)C=C1CC[C@@H]1[C@@H]2C(=O)C[C@@]2(C)[C@H]1CC[C@]2(O)C(=O)CO [prednisone] | did not show any cytotoxic effects |  | elevated | significantly reduced |

— US20170216219A1, “THERAPEUTIC NANOPARTICLES FOR ACCUMULATION IN THE BRAIN” (UNIVERSITY OF GEORGIA RESEARCH FOUNDATION, INC., priority 2014, published 2017)
